Source: ChEMBL document CHEMBL3046865, “Antibacterial activity of alkyl gallates and related compounds against Ralstonia solanacearum” (2011)
Calls of active or inactive are those of the source. No cut-off for these calls is given here.

Columns and labels:
Ralstonia solanacearum [1] = system: Ralstonia solanacearum
Ralstonia solanacearum [2] = system: Ralstonia solanacearum; remark: listed apart in the source
Ralstonia solanacearum [3] = format: functional
Ralstonia solanacearum [4] = format: functional; remark: listed apart in the source
Ralstonia solanacearum [5] = format: functional; remark: listed apart in the source
Ralstonia solanacearum [6] = format: functional; remark: listed apart in the source

SMILES	DIZ (Ralstonia solanacearum [1])	DIZ (Ralstonia solanacearum [2])	diameter of the inhibition zone (DIZ) (Ralstonia solanacearum [3]) [mm]	also measured
O=c1oc2c(O)c(O)cc3c(=O)oc4c(O)c(O)cc1c4c23	inactive	inactive	–	–
COC(=O)c1ccc(OC)cc1O	inactive	–	11	–
C[C@@H]1O[C@@H](OC[C@H]2O[C@@H](Oc3c(-c4ccc(O)c(O)c4)oc4cc(O)cc(O)c4c3=O)[C@H](O)[C@@H](O)[C@@H]2O)[C@H](O)[C@H](O)[C@H]1O	inactive	inactive	–	–
COc1cc(/C=C/C(=O)O)ccc1O	inactive	inactive	–	–
O=C(O)c1cc(O)c(O)c(O)c1 [GALLIC ACID]	inactive	–	12	–
COC(=O)c1ccc(O)c(OC)c1 [METHYL VANILLATE]	inactive	–	15	–
COC(=O)c1cccc(O)c1O [METHYL 2,3-DIHYDROXYBENZOATE]	–	–	58	diameter of the inhibition zone (DIZ) (Ralstonia solanacearum [4]): 13 mm
O=C(O)/C=C/c1ccccc1O [O-COUMARIC ACID]	inactive	–	16	–
COC(=O)c1cc(O)cc(O)c1 [METHYL 3,5-DIHYDROXYBENZOATE]	inactive	–	18	–
O=C(/C=C/c1ccc(O)c(O)c1)O[C@@H]1C[C@](O)(C(=O)O)C[C@@H](O)[C@H]1O	inactive	inactive	–	–
O=C(O)/C=C/c1ccc(O)cc1 [COUMARIC ACID]	inactive	–	11	–
O=C(O)c1ccccc1O [SALICYLIC ACID]	–	–	16	–
COC(=O)c1ccc(O)c(O)c1 [METHYL PROTOCATECHUATE]	–	–	37	diameter of the inhibition zone (DIZ) (Ralstonia solanacearum [4]): 11 mm
CCCOC(=O)c1ccc(O)cc1 [PROPYLPARABEN]	inactive	–	17	–
CCOC(=O)c1ccc(O)cc1 [ETHYLPARABEN]	inactive	–	29	–
COc1cc(/C=C/C(=O)O)cc(OC)c1O	inactive	inactive	–	–
COC(=O)c1cc(O)c(O)c(O)c1 [GALLIC ACID METHYL ESTER]	–	–	54	diameter of the inhibition zone (DIZ) (Ralstonia solanacearum [5]): 18 mm; diameter of the inhibition zone (DIZ) (Ralstonia solanacearum [6]): 11 mm; diameter of the inhibition zone (DIZ) (Ralstonia solanacearum [4]): 22 mm

SMILES	DIZ (Ralstonia solanacearum [1])	DIZ (Ralstonia solanacearum [2])	diameter of the inhibition zone (DIZ) (Ralstonia solanacearum [3]) [mm]	also measured
COC(=O)c1ccccc1O	inactive	inactive	–	–
COC(=O)c1ccc(O)cc1O [METHYL 2,4-DIHYDROXYBENZOATE]	inactive	–	32	–
CCOC(=O)c1cc(O)c(O)c(O)c1 [ETHYLGALLATE]	–	–	42	diameter of the inhibition zone (DIZ) (Ralstonia solanacearum [4]): 18 mm
O=C(O)/C=C/c1ccccc1 [CINNAMIC ACID]	inactive	–	13	–
COC(=O)c1ccc(O)cc1 [METHYLPARABEN]	inactive	–	36	–
CCCOC(=O)c1cc(O)c(O)c(O)c1 [PROPYL GALLATE]	–	–	31	diameter of the inhibition zone (DIZ) (Ralstonia solanacearum [4]): 11 mm
O=C(O)c1ccc(O)cc1 [PARABEN]	inactive	–	13	–
CCCCCCCCCCCCOC(=O)c1cc(O)c(O)c(O)c1	inactive	inactive	–	–
CCCCCCCCOC(=O)c1cc(O)c(O)c(O)c1 [OCTYL_GALLATE]	–	–	12	diameter of the inhibition zone (DIZ) (Ralstonia solanacearum [4]): 11 mm
O=C(O)/C=C/c1ccc(O)c(O)c1	inactive	inactive	–	–
COC(=O)c1cccc(O)c1 [METHYL 3-HYDROXYBENZOATE]	inactive	–	23	–
COC(=O)c1cc(O)ccc1O [METHYL 2,5-DIHYDROXYBENZOATE]	inactive	–	43	–
COC(=O)c1cc(OC)cc(OC)c1	inactive	inactive	–	–
O=C(O)c1cccc(O)c1 [3-HYDROXYBENZOIC ACID]	inactive	–	14	–
COc1ccc(/C=C/C(=O)O)cc1O	inactive	inactive	–	–
CCCCCCCCCOC(=O)c1ccc(O)cc1	inactive	inactive	–	–
O=c1c(O)c(-c2ccc(O)c(O)c2)oc2cc(O)cc(O)c12	inactive	inactive	–	–
